In patent US12577248B2, “Substituted [1,2,4]triazolo[1,5-a]pyrazines as spleen tyrosine kinase inhibitors” (NANJING RUIJIE PHARMA CO., LTD., priority 2020, dated 2026):

Assays:
SYK kinase = SYK kinase (Homo sapiens, UniProt P43405); experiment: SYK kinase assay (HTRF KinEASE-TK); type: biochemical; conditions: class symbols, read-out: Syk inhibition IC50
In short: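 SYK pre-incubated with compound for 10 min at room temperature, then reacted with biotinylated TK substrate and ATP for 30 min in buffer with 5 mM MgCl2, 1 mM MnCl2 and 1 mM DTT. HTRF 665/615 ratio read after 1 h detection. IC50 from variable-slope fit.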

[1] = In vivo pharmacokinetic analysis, single dose, ICR mice; conditions: mouse, male, plasma; for AUC(0-inf) / AUC(0-t) / Cmax / Tmax / half-life: single dose
Procedure: This is a single-dose study in ICR mice (male, n=9/administration) with intravenous and oral administration. Compound concentrations in plasma were measured and calculated for pharmacokinetic (PK) analysis via WinNonLin 6.4.

Ba/F3-TEL-SYK cells = target: T1, Ba/F3-TEL-SYK cells (Homo sapiens, UniProt P43405); experiment: Ba/F3-TEL-SYK cell-based assay (CellTiter-Glo proliferation); conditions: 72 hr, read-out: BaF3 Cell assay IC50
T1 construct: fused on or other part: N-terminal part of TEL (ETV6) with its oligomerising PNT/SAM domain, fused before the SYK part that carries the kinase domain; P41212 (Transcription factor ETV6)
Procedure: CellTiter-Glo® Luminescent Cell Viability Assay was used to determine the number of viable cells in culture based on quantitation of the ATP present, as an indicator of metabolically active cells. The assay was performed in the following steps: First, the testing compounds were dissolved in DMSO to make a stock solution. The stocks (10 mM) were then diluted to varying concentrations: […], 0.305 and 0.102 μM. An aliquot of 0.2 μl of diluted compounds were added to the 384 well assay plate. Second, added 40 μl of cell suspension with 800 Ba/F3-TEL-SYK cells into each well and incubated the plate at 37° C., 5% CO2 for 72 hr. Then, added 20 μl Cell Titer-Glo Reagent into each well of the cell culture plate. Mixed the contents for 2 min on an orbital shaker to lyse cells, and rest the plate at room temperature for 30 min. Finally, luminescence values were obtained using an Envision 2104 plate reader (PerkinElmer) and calculated the average data and Standard Deviation (SD) of DMSO and Reference (GS-9973, 1 μM) as high control and low control. To determine the IC50 value, fit the data using non-linear regression equation.

IC50 (SYK kinase): ≤ 50 nM
AUC(0-inf) ([1]; IV Administration (2 mg/kg)): 983 ng·h/mL
AUC(0-t) ([1]; IV Administration (2 mg/kg)): 980 ng·h/mL
Cmax ([1]; IV Administration (2 mg/kg)): 2520 ng/mL
Tmax ([1]; IV Administration (2 mg/kg)): 4.8 min
half-life ([1]; IV Administration (2 mg/kg)): 15 min
AUC(0-inf) ([1]; PO Administration (10 mg/kg)): 448 ng·h/mL
AUC(0-t) ([1]; PO Administration (10 mg/kg)): 381 ng·h/mL
Cmax ([1]; PO Administration (10 mg/kg)): 88.8 ng/mL
Tmax ([1]; PO Administration (10 mg/kg)): 30 min
half-life ([1]; PO Administration (10 mg/kg)): 54 min
bioavailability ([1]; PO 10 mg/kg vs IV 2 mg/kg, read-out: F % (bioavailability)): 7.77%
GI50 (Ba/F3-TEL-SYK cells): ≤ 50 nM
Compound: COc1cc(Nc2nc(-c3ccc4cn[nH]c4c3)cn3ncnc23)ccc1N1CCOCC1 [I1, 6-(1H-indazol-6-yl)-N-(3-methoxy-4-morpholinophenyl)-[1,2,4]triazolo[1,5-a]pyrazin-8-amine]
